Measured values taken from article PMC5874820 (Pharmaceutics, 2018).
Read-outs that look alike come from different tables or passages of the source.

Tests used:
[1] = system: PANC-1 xenograft tumor; assay: In vivo PANC-1 tumor growth xenograft model; set-up: species or system female athymic nude mice; settings: for percentage of inhibition of tumor growth: Panc-1 xenograft in nude mice
Experimental: The PANC-1 cells derived from human pancreatic carcinoma of ductal cell origin were obtained from National Center for Cell Science, Pune, India. The cells were cultured in Dulbecco's modified medium (DMEM) supplemented with 10% v/v fetal bovine serum (FBS), 1% penicillin, and 1% streptomycin. Cultures (Figure S1, Supplementary Materials) were maintained at 37 °C in a humidified atmosphere with 5% CO2. Female athymic nude mice were obtained from the National Centre for Laboratory Animal Sciences (NCLAS), National Institute of Nutrition (ICMR), Hyderabad, India and were selected after careful initial screening for any external signs of disease or injuries. They were housed in individual cages in the conventional animal facilities of NCLAS, a registered facility with Committee for the Purpose of Control and Supervision of Experimentation on Animals (CPCSEA) (154/1999), Government of India. The environmental conditions were kept at 21 ± 2 °C, with 10-15 air changes per hour and relative humidity of 50-55 percent with 12 h light/dark cycle water. Animals were quarantined for 4 days and all the animals had free access to sterile formulated feed pellets and filtered potable clean water. PANC-1 cells (1 × 10^6) using matrigel were injected subcutaneously into the flanks of mice (Figure S2, Supplementary Materials). […] Each mouse was administered orally (p.o.) every day with either control vehicle (CMC), CUR (50 mg/kg), ART (50 mg/kg), CUR-ART (50 and 100 mg/kg) and Doxorubicin (2 mg/kg) by intravenous (i.v.) route. […] At the same time, the body weight of each animal was measured. At the end of the experiment (4 weeks after cell inoculation), the animals were euthanized by CO2 and sacrificed. Tumors from each animal were removed and measured. Each value represents mean ± SD (Standard Deviation). The control and experimental animal groups were compared by paired t-test. **** p < 0.0001 was considered significant.

[2] = Supersaturation study in SGF and SIF (without enzyme), UV at 420 nm; format: physicochemical; settings: 100 µg/mL CUR, 30 °C
Experimental: Supersaturation of CUR and CUR-ART were measured in SGF and SIF (without enzyme) medium at 30 °C. The supersaturated solution (CUR 100 µg/mL dissolved in 5 mL of SGF/SIF fluid) was stirred at 800 rpm using a magnetic stirrer at 30 °C. After regular intervals of time 2, 4, 6, 12 and 24 h the solution concentration of curcumin was determined at 420 nm maxima on a Thermo Scientific Evolution 300 UV-Vis spectrometer (Thermo Scientific, Waltham, MA, USA).

[3] = set-up: method as in PMID 17999464, PMID 1529022; settings: cited from earlier work
[4] = cited from earlier work
[5] = set-up: method as in doi:10.1039/C4RA11935E; settings: curcumin (crystalline), oral dose of 200 mg/kg, male SD rats; cited from earlier work
[6] = Pharmacokinetic study, oral gavage, curcumin in plasma by HPLC; settings: oral administration, SD rats
Experimental: Sprague-Dawley rats (200 ± 50 g) were obtained from Sainath Agencies Limited (Hyderabad, India). Animals were acclimatized for 1 week prior to experimentation in a temperature-controlled, 12/12 h light/dark room, and were allowed standard laboratory food and water. The rats were fasted overnight (~18 h) with free access to water before the experiment.
All compounds (200 mg/kg) were suspended in 1% sodium carboxymethylcellulose (CMC) separately and administered by oral gavage. Blood (0.4 mL) was withdrawn from retro-orbital plexus into lithium heparin tube at the following times after drug administration: 30, 45, 60, 90, 120, 180, 240, 360, 480 and 720 min. […]
Curcumin Plasma concentrations of CUR were analyzed by HPLC (Shimadzu, Mumbai, India). The area under the curve (AUC) for serum concentration versus time plots was calculated by linear trapezoidal rate. […]
The HPLC analyses were performed using a Shimadzu Prominence model LC-20AD equipped with 20 mL injection loop, and a photodiode array detector and CUR detected at 420 nm. […]
The standard curve was calculated by a linear relationship between concentration and area with regression factor R = 0.999. The Area under the curve (AUC) for serum concentration vs. Time plots was calculated by the linear trapezoidal rule. […]

[7] = pure curcumin, reference not given

Compound	percentage of inhibition of tumor growth ([1]; 50 mg/kg p.o. daily) [%]	precipitation / residence time of solubilized CUR [2]	aqueous solubility [3] [µg/mL]	detection by HPLC at higher dosage levels ([4]; dosage >1 g/kg, ref recent reports)	half-life ([4]; pure curcumin in crystalline form, reference not given) [min]	half-life [4, 7] [min]	time in which it decomposes [4, 7]	plasma concentration by HPLC [5]	detectable curcumin levels in the serum [6]	percentage of inhibition of tumor growth ([1]; 2 mg/kg i.v. daily) [%]	effect on tumor size compared to other solids and controls ([1]; p < 0.0001, Panc-1 xenograft in nude mice)
C[C@@H]1CC[C@H]2[C@@H](C)C(=O)O[C@@H]3O[C@@]4(C)CC[C@@H]1[C@]32OO4 [ART, Artemisinin]	29.22	–	–	–	–	–	–	–	–	–	–
Curcumin	41.23	precipitated faster than CUR-ART	7.8	could not be detected	45 to 60	< 60	less than 1 h	no plasma concentration for curcumin (crystalline) could be detected	did not show any detectable levels	–	–
COc1cccc2c1C(=O)c1c(O)c3c(c(O)c1C2=O)C[C@@](O)(C(=O)CO)C[C@@H]3O[C@H]1C[C@H](N)[C@H](O)[C@H](C)O1 [doxorubicin]	–	–	–	–	–	–	–	–	–	69.97	decreased tumor size significantly
